According to patent US20040197321A1, “Composition and method to prevent or reduce diarrhea and steatorrhea in HIV patients” (priority 2002, published 2004):
Entries after “also recorded” stand apart in the source; their conditions may differ. Counter-ions that a name gives are not always drawn. Like-named read-outs stand apart in the source and are kept apart here.

Legend:
[1] = molecular target: T1, USP Reference Standard Pancrelipase (Sus scrofa, UniProt P00591); assay: Lipase assay (USP titrimetric): inhibition of pancrelipase at pH 9.0; assay type: biochemical
T1 sequence (P00591 1-450): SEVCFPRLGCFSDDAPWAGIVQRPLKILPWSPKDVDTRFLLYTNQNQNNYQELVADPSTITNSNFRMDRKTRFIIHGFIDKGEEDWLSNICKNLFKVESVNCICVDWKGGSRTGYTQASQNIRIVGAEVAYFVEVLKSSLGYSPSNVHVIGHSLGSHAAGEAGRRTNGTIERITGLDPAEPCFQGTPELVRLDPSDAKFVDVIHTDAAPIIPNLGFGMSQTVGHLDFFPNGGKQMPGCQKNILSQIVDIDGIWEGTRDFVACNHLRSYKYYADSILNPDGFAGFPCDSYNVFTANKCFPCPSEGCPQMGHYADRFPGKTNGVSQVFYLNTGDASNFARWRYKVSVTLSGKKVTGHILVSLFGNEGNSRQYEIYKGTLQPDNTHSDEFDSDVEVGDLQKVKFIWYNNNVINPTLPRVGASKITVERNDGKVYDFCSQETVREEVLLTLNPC
Protocol: (§1) The enzyme sources consisted of USP Reference Standard Pancrelipase, USP Reference Standard Trypsin, colipase (Sigma Chemical Co.), and enterokinase (ICN Biochemicals). Appropriate concentrations of enzyme reference standard were prepared in cold distilled water, as described in USP reference assay procedures. The Infectious Disease Clinic in Somerville, N.J. provided the HAART medications. Pure drugs could not be obtained so commercial drug preparations were used in the assays. […] Appropriate concentrations of HAART drug, drug cocktails, and excipients were prepared in distilled water and reagent-grade methanol (Aldrich, Milwaukee, Wis.) or DMSO (Aldrich, Milwaukee, Wis.).
One unit (U) of lipase activity is defined as the amount of enzyme that liberates one μequivalent of free fatty acid from triglycerides per minute at pH 9.0 and 37° C. Lipase activity (U/mg) was determined by a lipase specific titrimetric assay described in the United States Pharmacopeia (USP), Volume XXII. In brief, the substrate consists of 10% olive oil in acacia solution, 40-mg/mL sodium taurocholate, 0.075M calcium chloride, 0.05M Tris in 3.0M NaCl buffer solution (pH 7.5) and distilled water. The emulsified substrate is incubated at 37° C. and brought to pH 9.0 with 0.02N NaOH. At time zero, 1.0 mL of enzyme solution was added. A pH stat autotitrator was used to maintain pH 9.0 and the volume of 0.02 N NaOH dispensed per unit time was recorded for five (5) minutes. From the initial slope of this plot, lipase activity was calculated using the following equation:
U/mg=slope (mL of NaOH dispensed/min)×N of NaOH×1000 /mg of enzyme assayed
HAART drug solutions were mixed with the substrate prior to incubation and addition of enzyme.

[2] = molecular target: T2, pancrelipase (Sus scrofa, UniProt P00591); assay: Pancrelipase reactivation by colipase; assay type: biochemical; conditions: for % Lipase Activity with Colipase: colipase 5 μg/mL
T2 construct: Sigma Chemical Co. (colipase)
T2 sequence (P00591 1-450): T1 sequence (P00591 1-450)
Protocol: Junge et al., described the procedure for the reactivation of lipase by colipase. In brief, the above lipase assay procedure was used with the following variation: colipase solution replaced the distilled water so the concentration of colipase in the final reaction mixture was 5 μg/mL.

[3] = molecular target: T3, USP Reference Standard Trypsin (Bos taurus, UniProt P00760); assay: Trypsin assay (spectrophotometric); assay type: biochemical; conditions: NRTI; drug 2.1*10^-4M (Drug Tested 44-141 μg/mL); trypsin 7.6 μg/mL; 25° C.
T3 sequence (P00760 24-246): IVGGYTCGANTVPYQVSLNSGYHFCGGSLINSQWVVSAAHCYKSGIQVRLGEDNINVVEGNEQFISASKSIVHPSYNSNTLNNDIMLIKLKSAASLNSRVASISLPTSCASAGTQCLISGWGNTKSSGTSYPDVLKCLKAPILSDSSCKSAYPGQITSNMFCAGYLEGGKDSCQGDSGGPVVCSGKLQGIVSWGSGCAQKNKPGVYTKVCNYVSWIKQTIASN
Protocol: as §1, with “Appropriate” for “The enzyme sources consisted of USP Reference Standard Pancrelipase, USP Reference Standard Trypsin, colipase (Sigma Chemical Co.), and enterokinase (ICN Biochemicals). Appropriate”

[4] = tested on: HIV patients; conditions: Kakuda et al. 1998; cited from earlier work
[5] = tested on: pancrelipase; assay: Recovery of pancrelipase activity after inhibition, by addition of excess lipase; assay type: biochemical
Protocol: The above procedure was used to monitor pancrelipase activity with the exception that drug was not preincubated with the substrate. At time zero 1.0 mL of pancrelipase was added to initiate the reaction. At five (5) minutes, 1.0 mL of HAART drug solution was added to the reaction mixture to cause inhibition of lipase activity. At twelve (12) minutes an additional 1.0 mL of pancrelipase was added to the reaction mixture to overcome HAART inhibition. The reaction was monitored for twenty (20) minutes.

[6] = pH 9.0, read-out: IC50 for inhibitors of pancrelipase (converted)

Q: With `CC(C)(C)NC(=O)[C@@H]1C[C@@H]2CCCC[C@@H]2CN1C[C@@H](O)[C@H](Cc1ccccc1)NC(=O)[C@H](CC(N)=O)NC(=O)c1ccc2ccccc2n1` [FORTOVASE ®, Saquinavir] as the molecule, how does the IC50 ([1]; IC50 for inhibitors of pancrelipase, pH 9.0) read?
A: The IC50 was 3230 µM.

Q: Which results are given for `CCCCCCCCCCC[C@@H](C[C@@H]1OC(=O)[C@H]1CCCCCC)OC(=O)[C@H](CC(C)C)NC=O` [ORLISTAT, Orlistat, reference compound]?
A: effect of added colipase on the inhibition of pancrelipase (in words) [2]: no effect; % Lipase Activity No Colipase ([2]; Drug Conc. 0.002 mg/mL): 37%; % Lipase Activity with Colipase ([2]; Drug Conc. 0.002 mg/mL): 29%

Q: For `Cc1c(O)cccc1C(=O)N[C@@H](CSc1ccccc1)[C@H](O)CN1C[C@H]2CCCC[C@H]2C[C@H]1C(=O)NC(C)(C)C` [VIRACEPT ®, Nelfinavir mesylate], which IC50 [1, 6] is on record?
A: Its IC50 is 780 µM.

Q: Which “Inhibition of Tryspin” value [3] does the source give for `Nc1ccn([C@H]2CC[C@@H](CO)O2)c(=O)n1` [Zalcitabine USP Ref. STND, 2′,3′-Dideoxycytidine] here?
A: Its value is 0%.

Q: For `Cc1c(O)cccc1C(=O)N[C@@H](CSc1ccccc1)[C@H](O)CN1C[C@H]2CCCC[C@H]2C[C@H]1C(=O)NC(C)(C)C` [nelfinavir, 2-[2′-hydroxy-3′-phenylthiomethyl-4′-aza-5′-oxo-5′-(2″-methyl-3″-hydroxyphenyl)pentyl]decahydroisoquinoline-3-N-t-butyl-carboxamide], which “HIV patients who experience diarrhea” value [4] is on record?
A: The value was 12-20%.

Q: With “D-α-tocopheryl polyethylene glycol 1000 succinate [TPGS]” as the molecule, how does the “inhibition of pancrelipase (in words)” value [1] read?
A: Its value is “significantly inhibited; also recorded: significant inhibition”.

Q: What about the “IC50 for inhibitors of pancrelipase” value ([1]; pH 9.0) of the same molecule?
A: Its value is 275 mg/L.

Q: And the “% Inhibition of Pancrelipase” value ([1]; pH 9.0, Wt % Excipient in Source Used 0.2)?
A: The value was 6%.

Q: And the “% Inhibition of Pancrelipase” value ([1]; pH 9.0, Wt % Excipient in Source Used 0.5)?
A: Its value is 43%.

Q: What about the “% Inhibition of Pancrelipase” value ([1]; pH 9.0, Wt % Excipient in Source Used 1) of the same molecule?
A: Its value is 79%.

Q: What about the “% Inhibition of Pancrelipase” value ([1]; pH 9.0, Wt % Excipient in Source Used 2) of the same molecule?
A: Its value is 93%.

Q: And the “% Inhibition of Pancrelipase” value ([1]; pH 9.0, Wt % Excipient in Source Used 4)?
A: The value was 95%.

Q: And the “% Inhibition of Pancrelipase” value ([1]; pH 9.0, Wt % Excipient in Source Used 20)?
A: The value was 96%.

Q: What about the IC50 [1, 6] of the same molecule?
A: Its IC50 is 182 µM.

Q: What about the “effect of addition of excess lipase on the inhibition of pancrelipase (in words)” value [5] of the same molecule?
A: Its value is “can be overcome”.

Q: What about the “% Reactivation of Pancrelipase” value ([5]; after addition of excess lipase (additional 1.0 mL pancrelipase at 12 minutes)) of the same molecule?
A: The value was 98%.

Q: What about the “% Pancrelipase Activity” value ([5]; drug inhibited, before addition of excess lipase) of the same molecule?
A: Its value is 55%.

Q: What about the “effect of added colipase on the inhibition of pancrelipase (in words)” value [2] of the same molecule?
A: Its value is “reversed; also recorded: restored pancrelipase activity”.

Q: And the “% Lipase Activity No Colipase” value ([2]; Drug Conc. 10.0 mg/mL)?
A: Its value is 21%.

Q: What about the “% Lipase Activity with Colipase” value ([2]; Drug Conc. 10.0 mg/mL) of the same molecule?
A: The value was 79%.

Q: With Vitamin E as the molecule, how does the “% Inhibition of Pancrelipase” value ([1]; pH 9.0, Wt % Excipient in Source Used 50) read?
A: The value was 20%.
